# How the values were obtained:
# Assay in all cases: Test of herbicidal activities (greenhouse pot method)
# Format in all cases: in vivo
# Settings in all cases: single dose 300 g ai./h, treated before/after germination, 15 days later, greenhouse pot
# Brassica juncea = system: Brassica juncea
# In short: (§1)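 Greenhouse pot test at a single dose of 300 g ai./h, applied by spray tower pre- or post-emergence, with grasses at the 2-leaf stage, in triplicate with a blank control. Plants were kept at 15–30 °C. Inhibition was graded after 15 days: A 90–100%, B 80–<90%, C 60–<80%, D 50–<60%, E <50%.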
# Digiatria sanguinalis = system: Digiatria sanguinalis
# In short: as §1
# Chenopodium album = system: Chenopodium album
# In short: as §1
# Setaria viridis = system: Setaria viridis
# In short: as §1
# Echinochloa crusgalli = system: Echinochloa crusgalli
# In short: as §1
# Amaranthus retroflexus = system: Amaranthus retroflexus
# In short: as §1
SMILES,Herbicidal activity Brassica juncea (inhibition level) (Brassica juncea),Herbicidal activity Digiatria sanguinalis (inhibition level) (Digiatria sanguinalis),Herbicidal activity Chenopodium album (inhibition level) (Chenopodium album),Herbicidal activity Setaria viridis (inhibition level) (Setaria viridis),Herbicidal activity Echinochloa crusgalli (inhibition level) (Echinochloa crusgalli),Herbicidal activity Amaranthus retroflexus (inhibition level) (Amaranthus retroflexus)
Cc1nn(-c2cc3nc(SCc4cccc(Cl)c4)sc3cc2F)c(=O)n1C [Compound 32],B (80 ≦ B < 90%),A (90 ≦ A ≦ 100%),A (90 ≦ A ≦ 100%),C (60 ≦ C < 80%),B (80 ≦ B < 90%),A (90 ≦ A ≦ 100%)
C=CCSc1nc2cc(-n3nc(C)n(C(F)F)c3=O)c(Br)cc2s1 [Compound 88],A (90 ≦ A ≦ 100%),A (90 ≦ A ≦ 100%),B (80 ≦ B < 90%),D (50 ≦ D < 60%),B (80 ≦ B < 90%),A (90 ≦ A ≦ 100%)
CCOC(=O)CSc1nc2cc(-n3nc(C(F)(F)F)n(C(F)F)c3=O)c(F)cc2s1 [Compound 122],E (E < 50%),E (E < 50%),E (E < 50%),E (E < 50%),C (60 ≦ C < 80%),E (E < 50%)
Cc1nn(-c2cc3nc(S(C)(=O)=O)sc3cc2F)c(=O)n1C [Compound 35],D (50 ≦ D < 60%),A (90 ≦ A ≦ 100%),C (60 ≦ C < 80%),A (90 ≦ A ≦ 100%),C (60 ≦ C < 80%),B (80 ≦ B < 90%)
CCOC(=O)C(C)S(=O)(=O)c1nc2cc(-n3nc(C)n(C(F)F)c3=O)c(Br)cc2s1 (stereo not drawn) [Compound 59],A (90 ≦ A ≦ 100%),C (60 ≦ C < 80%),B (80 ≦ B < 90%),C (60 ≦ C < 80%),D (50 ≦ D < 60%),A (90 ≦ A ≦ 100%)
Cc1nn(-c2cc3nc(SCc4ccco4)sc3cc2F)c(=O)n1C(F)F [Compound 29],C (60 ≦ C < 80%),B (80 ≦ B < 90%),B (80 ≦ B < 90%),B (80 ≦ B < 90%),C (60 ≦ C < 80%),C (60 ≦ C < 80%)
Cc1nn(-c2cc3nc(SCc4cccc([N+](=O)[O-])c4)sc3cc2F)c(=O)n1C(F)F [Compound 13],B (80 ≦ B < 90%),B (80 ≦ B < 90%),C (60 ≦ C < 80%),C (60 ≦ C < 80%),C (60 ≦ C < 80%),A (90 ≦ A ≦ 100%)
CCOC(=O)C(C)[S+]([O-])c1nc2cc(-n3nc(C)n(C(F)F)c3=O)c(F)cc2s1 (stereo not drawn) [Compound 118],D (50 ≦ D < 60%),C (60 ≦ C < 80%),B (80 ≦ B < 90%),C (60 ≦ C < 80%),D (50 ≦ D < 60%),A (90 ≦ A ≦ 100%)
CCCCCCS(=O)(=O)c1nc2cc(-n3nc(C)n(C(F)F)c3=O)c(F)cc2s1 [Compound 55],C (60 ≦ C < 80%),B (80 ≦ B < 90%),A (90 ≦ A ≦ 100%),B (80 ≦ B < 90%),E (E < 50%),C (60 ≦ C < 80%)
C#CCSc1nc2cc(-n3nc(C)n(C(F)F)c3=O)c(F)cc2s1 [Compound 130],D (50 ≦ D < 60%),C (60 ≦ C < 80%),B (80 ≦ B < 90%),A (90 ≦ A ≦ 100%),B (80 ≦ B < 90%),A (90 ≦ A ≦ 100%)
CCS(=O)(=O)c1nc2cc(-n3nc(C)n(C(F)F)c3=O)c(Cl)cc2s1 [Compound 58],B (80 ≦ B < 90%),A (90 ≦ A ≦ 100%),A (90 ≦ A ≦ 100%),C (60 ≦ C < 80%),B (80 ≦ B < 90%),A (90 ≦ A ≦ 100%)
C=CCSc1nc2cc(-n3nc(C)n(C(F)F)c3=O)c(F)cc2s1 [Compound 94],B (80 ≦ B < 90%),A (90 ≦ A ≦ 100%),B (80 ≦ B < 90%),A (90 ≦ A ≦ 100%),A (90 ≦ A ≦ 100%),B (80 ≦ B < 90%)
Cc1nn(-c2cc3nc(SCc4cccc(F)c4)sc3cc2Cl)c(=O)n1C(F)F [Compound 7],C (60 ≦ C < 80%),B (80 ≦ B < 90%),E (E < 50%),B (80 ≦ B < 90%),E (E < 50%),B (80 ≦ B < 90%)
CCOC(=O)C(C)Sc1nc2cc(-n3nc(C(F)(F)F)n(C(F)F)c3=O)c(Cl)cc2s1 (stereo not drawn) [Compound 124],B (80 ≦ B < 90%),E (E < 50%),B (80 ≦ B < 90%),A (90 ≦ A ≦ 100%),D (50 ≦ D < 60%),B (80 ≦ B < 90%)
CCCCCCSc1nc2cc(-n3nc(C)n(C(F)F)c3=O)c(F)cc2s1 [Compound 83],C (60 ≦ C < 80%),D (50 ≦ D < 60%),A (90 ≦ A ≦ 100%),A (90 ≦ A ≦ 100%),B (80 ≦ B < 90%),A (90 ≦ A ≦ 100%)
Cc1nn(-c2cc3nc(SCc4ccccc4)sc3cc2F)c(=O)n1C(F)F [Compound 11],A (90 ≦ A ≦ 100%),B (80 ≦ B < 90%),C (60 ≦ C < 80%),C (60 ≦ C < 80%),E (E < 50%),B (80 ≦ B < 90%)
Cc1ccc(CS(=O)(=O)c2nc3cc(-n4nc(C)n(C(F)F)c4=O)c(F)cc3s2)cc1 [Compound 47],A (90 ≦ A ≦ 100%),A (90 ≦ A ≦ 100%),C (60 ≦ C < 80%),C (60 ≦ C < 80%),B (80 ≦ B < 90%),A (90 ≦ A ≦ 100%)
CCCCS(=O)(=O)c1nc2cc(-n3nc(C)n(C(F)F)c3=O)c(Cl)cc2s1 [Compound 69],B (80 ≦ B < 90%),B (80 ≦ B < 90%),C (60 ≦ C < 80%),B (80 ≦ B < 90%),A (90 ≦ A ≦ 100%),A (90 ≦ A ≦ 100%)
Cc1nn(-c2cc3nc(SCc4ccc(Cl)cc4)sc3cc2Br)c(=O)n1C(F)F [Compound 25],C (60 ≦ C < 80%),C (60 ≦ C < 80%),E (E < 50%),B (80 ≦ B < 90%),D (50 ≦ D < 60%),E (E < 50%)
Cc1nn(-c2cc3nc(SCc4ccc(Cl)cc4)sc3cc2Cl)c(=O)n1C(F)F [Compound 5],B (80 ≦ B < 90%),B (80 ≦ B < 90%),E (E < 50%),E (E < 50%),C (60 ≦ C < 80%),A (90 ≦ A ≦ 100%)
CCOCCSc1nc2cc(-n3nc(C)n(C(F)F)c3=O)c(Cl)cc2s1 [Compound 78],D (50 ≦ D < 60%),A (90 ≦ A ≦ 100%),B (80 ≦ B < 90%),A (90 ≦ A ≦ 100%),C (60 ≦ C < 80%),A (90 ≦ A ≦ 100%)

# From patent US7666890B2, “Synthesis and herbicidal activity of 1- (2-substituted benzo[d]thiazol-5-yl)-1H-1,2,4-triazol-5(4H)-one derivatives” (Huazhong Normal University, priority 2007, dated 2010)
